{
  "source": "paper PMC6547440",
  "about": "“The HRP3 PWWP domain recognizes the minor groove of double-stranded DNA and recruits HRP3 to chromatin” (Nucleic Acids Research, 2019)",
  "key": {"[1]": {"system": "HRP3 PWWP", "test": "DNA geometry analysis of the PWWP/DNA complex structures", "design": "species or system human", "description": "DNA geometry was analysed with the 3DNA ([42]) and Curves+ ([43]) programs. Electrostatic potentials were calculated using the DelPhi program ([44]). The minor groove width was measured according to the method described ([45]). In detail, the distances between the ith (i indicates the number of the base from one chain) phosphate atom from one chain and the (i + 4)th atom from the paired chain were used to describe the minor groove width at the ith base. Electrostatic potentials were calculated at the midpoints between the above phosphate atom pairs used to calculate the minor groove widths."}, "[2]": {"biological_target": "T1, HRP3 PWWP WT (Homo sapiens, UniProt Q9Y3E1)", "T1 construct": "using ^15N-labelled HRP3 PWWP (residues 1–110) dissolved in buffer; 6xHis-SUMO (cleaved yes); made in house; host or cells: Escherichia coli Rosetta (DE3)", "T1 sequence (Q9Y3E1 1-110)": "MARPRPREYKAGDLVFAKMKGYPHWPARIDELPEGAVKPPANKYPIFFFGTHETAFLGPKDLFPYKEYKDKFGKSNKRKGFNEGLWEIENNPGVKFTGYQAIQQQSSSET", "test": "NMR titration of H3K36 peptides with wild-type HRP3 PWWP", "format": "binding", "conditions": "15N-labelled HRP3 PWWP (1–110) WT, H3 residues 29–41, 20 mM PBS pH 6.9, 20 mM NaCl, 2 mM DTT, 298 K", "description": "(§1) All 2D ^1H-^15N HSQC NMR spectra were collected on the Bruker Avance III HD 600 MHz and 800 MHz spectrometers at 298 K. The NMR data were processed by NMRPipe ([39]) and analysed by KUJIRA ([40]) running with NMRview ([41]) softwares. Chemical shift perturbation experiments were carried out using ^15N-labelled HRP3 PWWP (residues 1–110) dissolved in buffer containing 20 mM PBS at pH 6.9, 20 mM NaCl and 2 mM DTT. A series of 2D ^1H-^15N HSQC spectra were recorded at HRP3 PWWP:H3K36me3/2/1/0 (residues 29–41) molar ratios of 1:0, 1:0.5, 1:1.5, 1:4, 1:6, 1:10, 1:15 and 1:20, respectively. The combined chemical shift perturbation was calculated using the following equation: Δδ = [(Δδ^1H)^2 + (Δδ^15N/5)^2]^1/2. Dissociation constants were calculated by fitting the data to a single-site ligand-binding model (SigmaPlot)."}, "[3]": {"system": "H3K36me3 peptide", "test": "NMR titration, loss of H3K36me3 peptide binding of HRP3 PWWP mutants", "conditions": "versus wild-type", "description": "as §1"}, "[4]": {"system": "chromatin of HepG2 cells", "test": "Subcellular fractionation, chromatin binding of GFP-HRP3 variants in HepG2 cells", "format": "cell-based, human", "conditions": "cellular fractionation, western blot anti-GFP", "description": "(§2) HepG2 (ATCC HB-8065) and HEK293T human embryonic kidney cells (ATCC #CRL-11268) were cultured in Dulbecco’s modified Eagle’s medium supplemented with 10% FBS. Stable overexpression of wild-type or mutant HRP3 in HepG2 cells was performed using FUGW lentiviral constructs expressing wild-type or mutant HRP3. Lentiviral vector infections ([47]) and plasmid transfections ([48]) were performed as previously described. Overexpression efficiency was determined by western blot.\nCellular fractionations were performed using a Subcellular Fractionation Kit (Thermo Scientific, cat. 78840) according to the manufacturer’s protocol. A total of 1 × 10^6 cells were used for each cell line’s fractionation. Soluble nuclear contents and chromatin-bound nuclear contents were analysed by western blotting using anti-GFP (gta-20, Chromo-Tek) and anti-histone H3 (4499S, CST) antibodies."}, "[5]": {"system": "chromatin of HepG2 cells", "test": "ChIP-Seq of GFP-HRP3 variants in HepG2 cells", "format": "cell-based, human", "conditions": "ChIP-Seq with GFP antibody, HepG2, two biological replicates combined", "description": "as §2\nFor chromatin immunoprecipitation, HepG2 cells were cross-linked with 1% formaldehyde at 37°C for 10 min and quenched with 0.125 M glycine for 5 min at room temperature. ChIP was performed using a ChIP assay kit (Millipore) according to the manufacturer’s protocol. Antibodies used for ChIP were GFP (gta-20, Chromo-Tek) and H3K36me3 (ab9050, abcam).\nChIP-Seq data were aligned to human genome hg19 using Bowtie 1.0 allowing one mismatch. Two biological replicates were performed and combined for the analysis. Analysis was performed using the Galaxy ([49]) and Cistrome ([50]) Platform and via custom R scripts for Bioconductor ([51]). Peak calling was performed using MACS2. Promoter definitions were downloaded from the UCSC browser ([52]). DNase I hypersensitivity and MNase-Seq data from ENCODE (GSM816662, GSM920557) ([53]) were used."}, "[6]": {"biological_target": "HRP3 PWWP K18A/N76A/R78A (KNR-A) (UniProt Q9Y3E1 1-110, K18A;N76A;R78A)", "sequence (Q9Y3E1 1-110 K18A/N76A/R78A)": "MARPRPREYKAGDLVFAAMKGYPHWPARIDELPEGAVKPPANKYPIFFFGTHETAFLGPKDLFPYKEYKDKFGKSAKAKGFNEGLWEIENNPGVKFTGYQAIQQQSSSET", "test": "MST; MST: 50 mM KCl, 10 mM Na cacodylate pH 6.5, 2 mM DTT, 200 nM FAM-dsDNA; ITC: 10 mM PBS pH 7.0, 50 mM NaCl, 2 mM b-ME, 20 C; nucleosome EMSA: 20 mM Tris pH 7.5", "conditions": "protein: recombinant; tags: none (His-SUMO removed); label: 5'-FAM (MST); blunt; self-complementary"}, "[7]": {"biological_target": "HRP3 PWWP (1-110) WT (UniProt Q9Y3E1 1-110)", "sequence (Q9Y3E1 1-110)": "as the sequence (Q9Y3E1 1-110) above", "test": "MST; MST: 50 mM KCl, 10 mM Na cacodylate pH 6.5, 2 mM DTT, 200 nM FAM-dsDNA; ITC: 10 mM PBS pH 7.0, 50 mM NaCl, 2 mM b-ME, 20 C; nucleosome EMSA: 20 mM Tris pH 7.5", "conditions": "protein: recombinant, tags: none (His-SUMO removed), label: 5'-FAM (MST), blunt"}, "[8]": {"biological_target": "T2, HRP3 PWWP domain (residues 1–110) (human, UniProt Q9Y3E1 1-110)", "T2 construct": "HDGF-related protein 3 (HRP3, HDGFL3), human, residues 1-110 holding the PWWP domain; His-SUMO tag removed by ULP1 protease; also called HRP3 PWWP (1–110); HRP3(1-110); source: E. coli Rosetta (DE3), purified (nickel column, gel filtration), 15N-labelled", "T2 sequence (Q9Y3E1 1-110)": "as above", "test": "NMR titration; 2D 1H-15N HSQC chemical shift perturbation of 15N-labelled HRP3 PWWP (1–110); H3 peptide (29–41) added to molar ratios 1:0 to 1:20; 298 K; 20 mM PBS pH 6.9, 20 mM NaCl, 2 mM DTT; single-site ligand-binding fit", "conditions": "both partners purified"}},
  "note": "No end group written: not given here. Me2 = dimethyl-lysine (Lys side chain dimethylated)",
  "data": [
    {"molecule": "5′-GCGCGCGCGC-3′ [10-mer-GC]", "values": [
      {"measurement": "average helical twist", "setting": "[1]; 3DNA", "value": 35.3, "unit": "°"},
      {"measurement": "average propeller twist", "setting": "[1]; 3DNA", "value": "−7.3", "unit": "°"},
      {"measurement": "bending angle towards the minor groove per 6 bps", "setting": "[1]; Curve+ software", "value": 3.4, "unit": "°"},
      {"measurement": "narrowing of minor groove upon PWWP binding", "setting": "[1]; crystal structure of complex", "value": "~2.7", "unit": "Å"},
      {"measurement": "width of the minor groove, PWWP-binding region", "setting": "[1]; crystal structure of complex", "value": 10.5, "unit": "Å"},
      {"measurement": "width of the minor groove, PWWP-free region", "setting": "[1]; crystal structure of complex", "value": 13.2, "unit": "Å"}
    ]},
    {"molecule": "CC(C)[C@H](NC(=O)CNC(=O)CNC(=O)[C@@H](NC(=O)[C@H](C)NC(=O)[C@@H]1CCCN1C(=O)[C@H](C)N)[C@@H](C)O)C(=O)N[C@@H](CCCCN)C(=O)N[C@@H](CCCCN)C(=O)N1CCC[C@H]1C(=O)N[C@@H](Cc1c[nH]cn1)C(=O)N[C@@H](CCCNC(=N)N)C(=O)N[C@@H](Cc1ccc(O)cc1)C(=O)O", "note": "[H3K36me0]", "values": [
      {"measurement": "Kd", "setting": "[2]", "value": "4.7 ± 1.2", "unit": "mM"}
    ]},
    {"molecule": "CNCCCC[C@H](NC(=O)[C@@H](NC(=O)CNC(=O)CNC(=O)[C@@H](NC(=O)[C@H](C)NC(=O)[C@@H]1CCCN1C(=O)[C@H](C)N)[C@@H](C)O)C(C)C)C(=O)N[C@@H](CCCCN)C(=O)N1CCC[C@H]1C(=O)N[C@@H](Cc1c[nH]cn1)C(=O)N[C@@H](CCCNC(=N)N)C(=O)N[C@@H](Cc1ccc(O)cc1)C(=O)O", "note": "[H3K36me1]", "values": [
      {"measurement": "Kd", "setting": "[2]", "value": "5.1 ± 1.9", "unit": "mM"}
    ]},
    {"molecule": "E53A: HRP3 PWWP mutant E53A", "values": [
      {"measurement": "fold loss of binding affinity for the H3K36me3 peptide", "setting": "[3]", "value": 5.7, "unit": "fold"}
    ]},
    {"molecule": "F48A: HRP3 PWWP aromatic cage mutant", "values": [
      {"measurement": "fold loss of binding affinity for the H3K36me3 peptide", "setting": "[3]", "value": 6.7, "unit": "fold"}
    ]},
    {"molecule": "K18A: DNA binding mutant of human HRP3, GFP fusion", "values": [
      {"measurement": "chromatin binding", "setting": "[4]", "value": "dramatically reduced the chromatin binding"}
    ]},
    {"molecule": "KNR-A: HRP3 K18A/N76A/R78A mutant, GFP fusion", "values": [
      {"measurement": "chromatin binding / recruitment by ChIP-Seq", "setting": "[5]", "value": "strong reduction in chromatin binding"},
      {"measurement": "chromatin binding", "setting": "[4]", "value": "dramatically reduced the chromatin binding"}
    ]},
    {"molecule": "KYNR-A: HRP3 K18A/Y22A/N76A/R78A mutant, GFP fusion", "values": [
      {"measurement": "chromatin binding / recruitment by ChIP-Seq", "setting": "[5]", "value": "strong reduction in chromatin binding"},
      {"measurement": "chromatin binding", "setting": "[4]", "value": "dramatically reduced the chromatin binding"}
    ]},
    {"molecule": "Y22A: HRP3 PWWP aromatic cage mutant", "values": [
      {"measurement": "chromatin binding / recruitment by ChIP-Seq", "setting": "[5]", "value": "weaker consequences"},
      {"measurement": "chromatin binding", "setting": "[4]", "value": "but not the H3K36me3 binding amino acids (Y22A) alone, dramatically reduced the chromatin binding"},
      {"measurement": "fold loss of binding affinity for the H3K36me3 peptide", "setting": "[3]", "value": 15, "unit": "fold"}
    ]},
    {"molecule": "16-mer-GC (dsDNA) DNA 1: GCGCGCGCGCGCGCGC DNA 2: GCGCGCGCGCGCGCGC", "values": [
      {"measurement": "binding signal", "setting": "[6]", "value": 5.7, "unit": "fold loss vs WT"},
      {"measurement": "Kd", "setting": "[7]; self-complementary", "value": 2800, "unit": "nM"}
    ]},
    {"molecule": "16-mer-random (dsDNA) DNA 1: CAGGCTGGTCTTGAAC DNA 2: GTTCAAGACCAGCCTG", "values": [
      {"measurement": "Kd", "setting": "[7]", "value": 3200, "unit": "nM"}
    ]},
    {"molecule": "APATGGVK(Me2)KPHRY (peptide, UniProt P68431 30-42, looked up, histone H3, residues 29-41; also called H3K36me2-containing peptide)", "note": "[H3K36me2 histone peptide (H3 residues 29–41)]", "values": [
      {"measurement": "Kd", "setting": "[8]", "value": 2.1, "unit": "mM"}
    ]}
  ]
}
